# Test results as given in patent US6949529B2, “Compositions containing lysophosphotidic acids which inhibit apoptosis and uses thereof” (Sky High, LLC, priority 1997, dated 2005).
# How the values were obtained:
# [1] = Size shift assay on Superdex S75 column; type: binding; details: soy LPA with 0.5 μCi ^3H-labeled 18:1-LPA, with test protein
# Protocol: Size shift assay. Size analysis of LPA both with and without protein was performed using a Superdex® S75 column (Pharmacia Biotech, Uppsala, Sweden). Soy LPA was combined in a chloroform solution with 0.5 μCi ^3H-labeled 18:1-LPA (DuPont NEN Products, Boston, Mass.), dried under vacuum and resuspended by sonication in a buffered solution (50 mM ammonium bicarbonate, 154 mM sodium chloride, pH 8.0) in the presence or absence of test protein. The ammonium bicarbonate/sodium chloride solution was used as the mobile phase at a flow rate of 1 ml/min. One-minute fractions were collected for 30 minutes following sample injection. Fractions were counted in scintillant solution using a liquid scintillation counter (Beckman Instruments, Irvine, Calif.). Calibration was performed using a standard solution containing purified proteins (BioRad, Hercules, Calif.).
# C3H/10T½ cells = assay: Effect of proteins on anti-apoptotic activity of soy LPA, C3H/10T½ cell assay; type: cell-based; details: 1:10 soy-LPA to protein (weight:weight), 24 h serum deprivation
# Protocol: Soy derived LPA (soy-LPA) (Avanti® Polar Lipids, Inc., Alabaster, Ala.) was stored in an organic solution and was dried immediately prior to assay using a Speed Vac (Savant Instruments, Hicksville, N.Y.). Tested proteins were resuspended at 10 mg/mL in a bicarbonate buffered saline/EDTA solution (50 mM NH4HCO3, 104 mM NaCl, 250 μM EDTA) prior to being added to dried soy-LPA at a 1:10 soy-LPA to protein (weight:weight) ratio. The mixture was then sonicated for 5 minutes using a high power 80 Watt sonication bath (Laboratory Supplies Co., Hicksville, N.Y.). Following sonication, concentrated LPA/protein mixtures were left standing for 15 minutes at room temperature prior to dilution in cell culture assay media.
# The effect of various proteins on the ability of LPA to protect serum-starved cells from apoptotic death was measured using the C3H/10T½ cell assay, performed as described in Example 2, above. Log phase cells were seeded in 60 mm Petri dishes at 175-350 cells per cm^2 and maintained in Basal Medium Eagle (BME) supplemented with 10% fetal calf serum (Hyclone, Logan, Utah). At time zero, serum containing media was replaced with sterile filtered BME containing the LPA/protein mixture to be tested. After 24 hours of treatment, serum deprived release (SDR) cells (the apoptotic cell population) and adherent (ADH) cells were separated and counted using an electronic cell counter (Coulter Corporation, Hialea, Fla.). SDR cells were counted with the lower threshold setting at 6.3 μm and were defined as the apoptotic cells dying in response to cultivation in serum-free-media. Approximately 95% of the SDR cells are confirmed to be apoptotic as previously shown by size, ultrastructure and DNA fragmentation analysis. Adherent cells were removed by treatment with a Hanks' balanced salt solution containing 0.05% trypsin and 0.53 mM EDTA and were counted with the lower threshold setting at 11.01 μm. All samples were tested in triplicate and serum-deprived controls (BME only) were assayed at both the beginning and end of each experiment.
# The effects of various proteins alone or in combination with LPA are expressed as percent cells saved from apoptosis. When C3H10T½ cells were treated with 10 μg/mL soy LPA without protein, 8.0% of the cells were saved. The degree of protection from apoptosis afforded by protein alone, added to the medium at a concentration of 0.1% (wt/vol.), varied from 0.9% to 27.7% of cells saved from apoptosis. An unusually high percentage of cells were protected from serum-starvation-induced apoptosis by casein. This value may be artificially high, as casein preparations have been known to contain growth factors, including insulin-like growth factors (IGF) IGF1 and IGF2. IGF2 is a mitogen that can mask the serum deprivation-induced apoptotic response in these cells.
# [2] = Electrophoresis radiobinding assay on native polyacrylamide gel; type: binding; details: 1 nM labeled 18:1-LPA/45 μg protein, 37° C., 60 minutes
# Protocol: Electrophoresis radiobinding assay. Proteins were analyzed on native polyacrylamide gels following incubation with ^3H-labeled 18:1-LPA. ^3H-labeled lysophosphatidic acid (1-oleyl) (DuPont NEN Products, Boston, Mass.) was added to tested proteins at 1 nM labeled 18:1-LPA/45 μg protein. Mixtures were incubated in a bicarbonate buffered saline/EDTA solution at 37° C. for 60 minutes. Incubated samples were mixed with native gel sample buffer (312 mM Tris pH 6.8, 50% glycerol, 0.05% bromophenol blue) and loaded entirely onto an 8% discontinuous native polyacrylamide gel. Following electrophoresis, proteins were fixed into the gels using an aqueous solution consisting of glacial acetic acid, 10% (vol/vol) and methanol 30% (vol./vol.) solution. Fixed gels were then incubated for 60 minutes in autoradiography enhancer (EN^3HANCE, DuPont NEN Products, Boston, Mass.), and dried onto 3M chromatography paper (Whatman, Clifton, N.J.) and exposed to autoradiography film (X-Omat, Kodak, Rochester, N.Y.) for 72 hours at −80° C.
# [3] = system: rat neonatal cardiomyocytes; assay: Cardiomyocyte death induced by ischemia and reperfusion (in vitro model); type: cell-based; details: mixture with PEG (FIG. 14)
# Protocol: Cardiomyocytes were prepared from hearts of day-old Sprague Dawley rats by trypsinization and mechanical disaggregation (Simpson, (1985)) Circ. Res. 56:884-894. The cells were resuspended in MEM, 1×MEM vitamins (Gibco), 5% fetal bovine serum and 50 U/ml penicillin-G and pre-plated for 30 minutes to reduce contamination of non-myocytes. The non-adherent cardiac myocytes were separated and seeded in 2 ml in 35 mm dishes at a density of 3.5×10^5 viable cells per ml. The cells were allowed to adhere for 16-24 hours in a 37° C./5% CO2 humidified incubator.
# For serum deprivation, the medium was replaced with fresh serum-free RPMI, whereas serum/glucose deprivation was performed using glucose-free RPMI. The induction of cell death by adriamycin or C2-ceramide was accomplished by the addition of the agent prepared in serum-free RPMI. As a model of ischemia, cultures in serum and glucose free RPMI were placed in an airtight chamber and the latter was continuously perfused with oxygen-free gas overlay of 95% N2/5% CO2 for 8 hours at 37° C. […]
# Because cardiomyocytes are terminally differentiated non-dividing cells, viability was determined by measurement of the decrease in the relative number of adherent cells. […] Adherent cardiomyocytes were collected from culture dishes using 0.25% Trypsin/0.05% EDTA and counted on Coulter Counter ZM and Coulter Channelyzer 256.
compound,measurement,setting,value
Albumin (Fatty Acid Depleted): fatty acid depleted (FAD) bovine serum albumin (BSA),3H-LPA Size Shift Analysis (+/−),[1],most of the LPA was bound to BSA
same,"Protein + 10 μg/mL Soy LPA, percent cells saved from apoptosis",C3H/10T½ cells,58.7%
same,Detectable Acrylamide Gel ^3H LPA Binding (+/−),[2],bind to 18:1-LPA
"CCCCCCCC/C=C\CCCCCCCC(=O)OCC(O)COP(=O)(O)O (stereo not shown) [18:1 LPA, oleoyl-lysophosphatidic acid]",cardiomyocyte death induced by ischemia and reperfusion,[3],equally protect
